Source: the supplement of paper PMC10307832

What was measured:
Experiment in all cases: relative viability (nuclei count vs DMSO), 5 days (fraction); higher = more cells survive
[1] = compound: C(C(=O)C(=O)O)Br [Bromopyruvate] + CS(=O)(=O)N1CCN(Cc2cc3nc(-c4cccc5[nH]ncc45)nc(N4CCOCC4)c3s2)CC1 [Pictilisib] (partner 1 µM)
Summary of the method: (§1)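 Relative viability equals treated-well nuclei counts divided by vehicle-well nuclei counts. Counts came from 4× images of lung cancer cell lines grown in 1536-well plates for 5 days after pin-tool dosing on the day after seeding. Dosing used one drug alone or a fixed anchor-drug dose plus five library-drug doses (not always all listed) in √10 steps, and values are medians of duplicate plates.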

Bicalutamide + OSI-027 = compound: CC(O)(CS(=O)(=O)c1ccc(F)cc1)C(=O)Nc1ccc(C#N)c(C(F)(F)F)c1 [Bicalutamide] + COc1cccc2cc(-c3nc([C@H]4CC[C@H](C(=O)O)CC4)n4ncnc(N)c34)[nH]c12 [OSI-027] (partner 0.5 µM)
Summary of the method: as §1

[2] = compound: C(C(=O)C(=O)O)Br [Bromopyruvate] + CCNC(=O)c1noc(-c2cc(C(C)C)c(O)cc2O)c1-c1ccc(CN2CCOCC2)cc1 [Luminespib] (partner 0.01 µM)
Summary of the method: as §1

Bicalutamide + AZD7762 = compound: CC(O)(CS(=O)(=O)c1ccc(F)cc1)C(=O)Nc1ccc(C#N)c(C(F)(F)F)c1 [Bicalutamide] + NC(=O)Nc1cc(-c2cccc(F)c2)sc1C(=O)N[C@H]1CCCNC1 [AZD7762] (partner 0.2 µM)
Summary of the method: as §1

Cell Line | relative viability ([1]; first compound 1 µM) | relative viability ([1]; first compound 3.162 µM) | relative viability ([1]; first compound 31.62 µM) | relative viability ([1]; first compound 100 µM) | relative viability (Bicalutamide + OSI-027; first compound 0.08 µM) | relative viability (Bicalutamide + OSI-027; first compound 0.253 µM) | relative viability (Bicalutamide + OSI-027; first compound 0.8 µM) | relative viability (Bicalutamide + OSI-027; first compound 2.53 µM) | relative viability ([2]; first compound 1 µM) | relative viability ([2]; first compound 3.162 µM) | relative viability ([2]; first compound 10 µM) | relative viability ([2]; first compound 31.62 µM) | relative viability ([2]; first compound 100 µM) | relative viability (Bicalutamide + AZD7762; first compound 0.08 µM) | relative viability (Bicalutamide + AZD7762; first compound 0.253 µM) | relative viability (Bicalutamide + AZD7762; first compound 0.8 µM) | relative viability (Bicalutamide + AZD7762; first compound 2.53 µM) | relative viability ([1]; first compound 10 µM)
HOP-62 | 0.71 | 0.889 | 0.836 | 0.988 | 0.927 | 0.844 | 0.956 | 0.785 | 0.887 | 0.97 | 0.84 | 0.934 | 0.9 | 0.567 | 0.494 | 0.848 | 0.432 | –
IA-LM | 0.336 | 0.357 | 0.28 | 0.434 | – | – | – | – | – | – | – | – | – | – | – | – | – | 0.328
LC-2-ad | 0.477 | 0.494 | 0.572 | 0.548 | 0.962 | 0.718 | 0.885 | 0.684 | 1.02 | 1.11 | 1.21 | 1.04 | 0.843 | 0.852 | 0.838 | 0.915 | 0.883 | 0.513
LCLC-97TM1 | – | – | 0.191 | 0.183 | 0.598 | 0.37 | 0.627 | 0.422 | 0.727 | 0.792 | 0.864 | 0.708 | 0.709 | 0.388 | 0.186 | 0.225 | 0.232 | 0.244
LCLC-103H | 0.508 | 0.596 | 0.524 | 0.592 | 0.464 | 0.425 | 0.476 | 0.451 | 0.963 | 0.998 | 1.05 | 0.938 | 0.878 | 0.829 | 0.791 | 0.8 | 0.814 | 0.684
LK-2 | 0.548 | 0.526 | 0.704 | 0.642 | 0.195 | 0.189 | 0.194 | 0.207 | 0.166 | 0.182 | 0.158 | 0.161 | 0.199 | 0.432 | 0.254 | 0.442 | 0.495 | 0.59
LOU-NH91 | 0.588 | 0.548 | 0.516 | 0.589 | 0.768 | 0.659 | 0.736 | 0.726 | 0.321 | 0.316 | 0.372 | 0.348 | 0.321 | 0.725 | 0.653 | 0.793 | 0.751 | 0.48
NCI-H520 | 0.264 | 0.34 | 0.293 | 0.317 | 0.237 | 0.228 | 0.373 | 0.251 | 0.223 | 0.216 | 0.228 | 0.182 | 0.242 | – | – | – | – | 0.337
NCI-H522 | – | – | – | – | 0.726 | 0.685 | 0.775 | 0.641 | 1.07 | 1.16 | 1.11 | 1.28 | 1.29 | 0.762 | 0.849 | 0.916 | 0.808 | –
NCI-H661 | 0.445 | 0.349 | 0.337 | 0.354 | 0.719 | 0.691 | 0.839 | 0.699 | 0.882 | 0.969 | 0.964 | 0.91 | 0.892 | – | – | – | – | 0.458
NCI-H1299 | 0.779 | 0.811 | 0.664 | 0.799 | – | – | – | – | – | – | – | – | – | – | – | – | – | 0.809
